# Laboratory results taken from patent US11691989B2, “Macrocyclic indoles as Mcl-1 inhibitors” (ASCENTAGE PHARMA (SUZHOU) CO., LTD., priority 2018, dated 2023).
# Experiments:
# [1] = Microsome clearance assay, rat; assay type: in vitro ADME; details: 0.5 mg/ml protein, 1 mM NADPH, 60 minutes; for microsomal CLint at 5 μM: male, Wister, rat, pooled liver microsomes, pH 7.4, rat liver microsomes, read-out: Rat Liver Microsome Clint (μL/min/mg protein)
# Method: (§1) Representative Compounds of the Disclosure were tested in a microsome clearance assay. Pooled liver microsomes (20 mg/ml) from human, male Wister rat, and male CD-1 mouse were obtained from BD Bioscience (Franklin Lakes, N.J. USA). Incubation reaction mixtures contained a final concentration of 0.1M sodium phosphate buffer (pH 7.4), 0.5 mg/ml microsomal protein, 5 μM of test sample and 1 mM NADPH in a total volume of 400 μl. The incubations were done for 60 minutes and 300 μl of the mixtures was transferred to 150 μl of ice cold methanol to terminate reactions. After vortexes for 3 minutes and centrifuged at 4000 rpm at 4° C. for 10 minutes, the clear supernatant was used directly for analysis. The samples were analyzed by Applied Biosystems API 3200 Q TRAP LC/MS/MS system using electrospray ionization mode.
# [2] = target: Mcl-1 protein (residues 171-323) (Homo sapiens (Human), UniProt Q07820); assay: Inhibition of Mcl-1 by fluorescence polarization (FP) competitive binding assay with FAM-Bid tracer; details: 2 nM FAM-Bid, 20 nM Mcl-1, 30 min, read-out: Mc1-1 (FP)
# Chain of Mcl-1 protein (residues 171-323) (Q07820 171-323): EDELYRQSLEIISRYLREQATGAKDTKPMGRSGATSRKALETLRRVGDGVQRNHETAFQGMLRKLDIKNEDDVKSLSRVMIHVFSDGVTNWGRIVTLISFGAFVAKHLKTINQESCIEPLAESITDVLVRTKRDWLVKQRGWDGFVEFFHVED
# Summary of the method: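 Competitive FP binding of compounds against FAM-Bid tracer (final 2 nM) on Mcl-1 (final 20 nM) in PBS with 0.01% BGG and 0.01% Triton X-100, 5% final DMSO.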
# [3] = Microsome clearance assay, mouse; assay type: in vitro ADME; details: 0.5 mg/ml protein, 1 mM NADPH, 60 minutes; for Mouse Liver Microsome Clint (μL/min/mg protein): mouse liver microsomes, 5 μM; for microsomal CLint at 5 μM: male, CD-1, mouse, pooled liver microsomes, pH 7.4, mouse liver microsomes, read-out: Mouse Liver Microsome Clint (μL/min/mg protein)
# Method: as §1
# OPM-2 cells = assay: Cell viability assay (OPM-2 cells), CCK-8; assay type: cell-based; details: 5% FBS
# Summary of the method: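 OPM-2 myeloma cells (20000/well) incubated with serially diluted compound for 24 h at 37 °C, 5% CO2. Viability read by CCK-8 (4 h) absorbance at 450 nm, normalised to vehicle; IC50 from nonlinear regression.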
# NCI-H929 cells = assay: Cell viability assay (NCI-H929 cells), CCK-8; assay type: cell-based; details: 5% FBS
# Summary of the method: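 NCI-H929 cells (20000/well) exposed to serially diluted compounds for 24 h at 37 °C, 5% CO2. Viability by CCK-8, absorbance at 450 nm after 1-4 h, normalized to vehicle-treated cells. IC50 by nonlinear regression.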
# [4] = Kinetic solubility assay in PBS buffer; assay type: physicochemical; details: for solubility: PBS buffer, pH 6.5, aqueous buffer, thermodynamic from solid, read-out: Solubility (pH 6.5, μg/mL)
# Method: Representative Compounds of the Disclosure were tested in a kinetic solubility assay in PBS buffer. PBS buffer was prepared by dissolving 4.86 g of potassium dihydrogen phosphate and 5.09 g of disodium hydrogen phosphate dodecahydrate in 1 L of ultrapure water (final pH 6.5). 0.5 mg of test sample was dissolved in 1 mL of methanol and the stock solution was transferred into 2 mL EP tube, and evaporated at 50° C. for 3 h. To the tube was added 1 mL of PBS buffer and the mixture was stirred and shaken for 1-2 h. The solution was allowed to stand overnight and then filtered before HPLC analysis. Another 1.5 mg of the sample was dissolved in 3 mL of methanol to prepare a calibration curve with a series of concentration range of 5-500 μM. The solubility of each sample was determined by the measured peak area in HPLC.
# [5] = Microsome clearance assay, human; assay type: in vitro ADME; details: 0.5 mg/ml protein, 1 mM NADPH, 60 minutes; for microsomal CLint at 5 μM: human, pooled liver microsomes, pH 7.4, human liver microsomes, read-out: Human Liver Microsome Clint (μL/min/mg protein)
# Method: as §1
SMILES,"Rat Liver Microsome Clint (μL/min/mg protein) ([1]; rat liver microsomes, 5 μM)",IC50 [2] [nM],Mouse Liver Microsome Clint (μL/min/mg protein) [3] [μL/min/mg protein],IC50 (NCI-H929 cells; 24 hrs) [nM],"Solubility (pH 6.5, μg/mL) ([4]; PBS buffer pH 6.5) [μg/mL]","Human Liver Microsome Clint (μL/min/mg protein) ([5]; human liver microsomes, 5 μM)",microsomal CLint at 5 μM [1] [µL/min/mg],microsomal CLint at 5 μM [3] [µL/min/mg],"IC50 (NCI-H929 cells; Homo sapiens, NCI-H929, 24 h) [nM]",solubility [4] [µg/mL],microsomal CLint at 5 μM [5] [µL/min/mg],IC50 (OPM-2 cells; 24 hours) [nM],"IC50 (OPM-2 cells; Homo sapiens, OPM-2, 24 h) [nM]"
"Cc1c(C(=O)O)n2c3ccc(Cl)c(c13)-c1c(nn(C)c1C)CSCc1cc(n(C)n1)CSc1cc(c3ccccc3c1)OCCC2 (atropisomer, axis not shown) [Cpd. No. 7, (S)-(Z)-1^5-chloro-1^3,2^1,2^5,6^1-tetramethyl-1^1H,2^1H,6^111-10-oxa-4,8-dithia-1(4,1)-indola-2(4,3),6(3,5)-dipyrazola-9(3,1)-naphthalenacyclotridecaphane-1^2-carboxylic acid]",111,> 1000,245,7440,6,38.0,,,,,,> 10000,
"Cc1c2c(nn1C)CSCc1cc(n(C)n1)CSc1cc(c3ccccc3c1)OCCCn1c(C(=O)O)c(Cl)c3c-2c(Cl)ccc31 [Cpd. No. 9, (Z)-1^3,1^5-dichloro-2^1,2^5,6^1-trimethyl-1^1H,2^1H,6^1H-10-oxa-4,8-dithia-1(4,1)-indola-2(4,3),6(3,5)-dipyrazola-9(3,1)-naphthalenacyclotridecaphane-1^2-carboxylic acid]",,14,,,,,,,479,> 400,,,1250
"COCCn1nc2c(c1C)-c1c(Cl)ccc3c1c(C)c(C(=O)O)n3CCCOc1cc(cc3ccccc13)SCc1cc(nn1C)CSC2 [Cpd. No. 11, (Z)-1^5-chloro-2^1-(2-methoxyethyl)-1^3,2^5,6^1-trimethyl-1^1H,2^1H,6^1H-10-oxa-4,8-dithia-1(4,1)-indola-2(4,3),6(3,5)-dipyrazola-9(3,1)-naphthalenacyclotridecaphane-1^2-carboxylic acid]",,15,,,,,35.4,145,68,< 1,39.6,,171
"CNC(=O)Cn1nc(C)c2c1CSCc1cc(n(C)n1)CSc1cc(c3ccccc3c1)OCCCn1c(C(=O)O)c(C)c3c-2c(Cl)ccc31 [Cpd. No. 26, (Z)-1^5-chloro-1^3,2^3,6^1-trimethyl-2^1-(2-(methylamino)-2-oxoethyl)-1^1H,2^1H,6^1H-10-oxa-4,8-dithia-1(4,1)-indola-2(4,5),6(3,5)-dipyrazola-9(3,1)-naphthalenacyclotridecaphane-1^2-carboxylic acid]",,14,,,,,14.2,41.2,300,< 1,12.8,,992
"Cc1c(C(=O)O)n2c3ccc(Cl)c(c13)-c1c(nn(C)c1C)CN(S(C)(=O)=O)Cc1cc(n(C)n1)CSc1cc(c3ccc(F)cc3c1)OCCC2 [Cpd. No. 32, (Z)-1^5-chloro-9^6-fluoro-1^3,2^1,2^5,6^1-tetramethyl-4-(methylsulfonyl)-1^1-H,2^1H, 6′H-10-oxa-8-thia-4-aza-1(4,1)-indola-2(4,3),6(3,5)-dipyrazola-9(3,1)-naphthalenacyclotridecaphane-1^2-carboxylic acid]",,36,35.0,213,,,10.8,,,> 400,4.4,542,
"COCCN1Cc2cc(n(C)n2)CSc2cc(c3ccc(F)cc3c2)OCCCn2c(C(=O)O)c(C)c3c(c(Cl)ccc32)-c2c(nn3c2COCC3)C1 [Cpd. No. 50, (Z)-1^5-chloro-9^6-fluoro-4-(2-methoxyethyl)-1^3, 6^1-dim ethyl-2^6,2^7-dihydro-1^1H,2^4H,6^1H-10-oxa-8-thia-4-aza-2(3,2)-pyrazolo[5,1-c][1,4]oxazina-1 (4,1)-indola-6(3,5)-pyrazola-9(3,1)-naphthalenacyclotridecaphane-1^2-carboxylic acid]",,20,,,,,22.2,65.2,226,,10.2,,1640
"Cc1c(C(=O)O)n2c3ccc(Cl)c(c13)-c1c(nn3c1COCC3)CN(CCNS(C)(=O)=O)Cc1cc(n(C)n1)CSc1cc(c3ccc(F)cc3c1)OCCC2 [Cpd. No. 51, (Z)-1^5-chloro-9^6-fluoro-1^3, 6^1-di methyl-4-(2-(methylsulfonamido)ethyl)-26,27-dihydro-1^1H,2^4H,6^1H-10-oxa-8-thia-4-aza-2(3,2)-pyrazolo[5,1-c][1,4]oxazina-1(4,1)-indola-6(3,5)-pyrazola-9(3,1)-naphthalenacyclotridecaphane-1^2-carb oxylic acid]",,17,,,,,15,30.6,1540,,7.4,,5820
"Cc1c(C(=O)O)n2c3ccc(Cl)c(c13)-c1c(nn(C)c1C)CN(C(C)C)Cc1cc(n(C)n1)CSc1cc(c3ccc(F)cc3c1)OCCC2 [Cpd. No. 53, (Z)-1^5-chloro-9^6-fluoro-4-isopropyl-1^3,2^1,2^5,6^1-tetramethyl-1^1H,2^1H,6^1H-10-oxa-8-thia-4-aza-1(4,1)-indola-2(4,3),6(3,5)-dipyrazola-9(3,1)-naphthalenacyclotridecaphane-1^2-carboxylic acid]",,34,,,,,30,59.2,222,,18.6,,1710

# The next lines start with results.
"Rat Liver Microsome Clint (μL/min/mg protein) ([1]; rat liver microsomes, 5 μM)",IC50 [2] [nM],Mouse Liver Microsome Clint (μL/min/mg protein) [3] [μL/min/mg protein],IC50 (NCI-H929 cells; 24 hrs) [nM],"Solubility (pH 6.5, μg/mL) ([4]; PBS buffer pH 6.5) [μg/mL]","Human Liver Microsome Clint (μL/min/mg protein) ([5]; human liver microsomes, 5 μM)",microsomal CLint at 5 μM [1] [µL/min/mg],microsomal CLint at 5 μM [3] [µL/min/mg],"IC50 (NCI-H929 cells; Homo sapiens, NCI-H929, 24 h) [nM]",solubility [4] [µg/mL],microsomal CLint at 5 μM [5] [µL/min/mg],SMILES,IC50 (OPM-2 cells; 24 hours) [nM],"IC50 (OPM-2 cells; Homo sapiens, OPM-2, 24 h) [nM]"
,14,,,,,31.2,53,53,< 1,18.2,"Cc1c(C(=O)O)n2c3ccc(Cl)c(c13)-c1c(nn3c1CCC3)CSCc1cc(n(C)n1)CSc1cc(c3ccc(F)cc3c1)OCCC2 [Cpd. No. 2, (Z)-1^5-chloro-9^6-fluoro-1^3,6^1-dimethyl-2^5,2^6-dihydro-1^1H,2^4H,6^1H-10-oxa-4,8-dithia-1(4,1)-indola-2(3,2)-pyrrolo[1,2-b]pyrazola-6(3,5)-pyrazola-9(3,1)-naphthalenacyclotridecaphane-1^2-carboxylic acid]",,220
,14,,,,,,,391,< 1,,"Cc1c(C(=O)O)n2c3ccc(Cl)c(c13)-c1c(nn3c1CC(C)(C)C3)CSCc1cc(n(C)n1)CSc1cc(c3ccc(F)cc3c1)OCCC2 [Cpd. No. 3, (Z)-1^5-chloro-9^6-fluoro-1^3,2^5,2^5,6^1-tetramethyl-2^5,2^6-dihydro-1^1H,2^4H,6^1H-10-oxa-4,8-dithia-1(4,1)-indola-2(3,2)-pyrrolo[1,2-b]pyrazola-6(3,5)-pyrazola-9(3,1)-naphthalenacyclotridecaphane-1^2-carboxylic acid]",,386
,14,,,,,19.8,41.2,49,< 1,13.8,"Cc1c(C(=O)O)n2c3ccc(Cl)c(c13)-c1c(nn3c1COCC3)CSCc1cc(n(C)n1)CSc1cc(c3ccc(F)cc3c1)OCCC2 [Cpd. No. 4, (Z)-1^5-chloro-9^6-fluoro-1^3,6^1-dimethyl-2^6,2^7-dihydro-1^1H,24H,6^1H-10-oxa-4,8-dithia-2(3,2)-pyrazolo[5,1-c][1,4]oxazina-1(4,1)-indola-6(3,5)-pyrazola-9(3,1)-naphthalenacyclotridecaphane-1^2-carboxylic acid]",,438
